The values below come from PubChem BioAssay (NCI).

Test systems include IGROV1 ovarian; TK-10 renal; SK-MEL-5 melanoma; MCF7 breast; HCT-116 colon; NCI-H23 lung; ACHN renal; MDA-MB-435; SK-MEL-28 melanoma; SK-MEL-2 melanoma.
Assay in all cases: NCI tumour cell line growth inhibition, 48 h

Molecules are shown by their SMILES.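 Grown in 96-well plates, cells were treated for 48 hours with each compound at five concentrations. Insufficient inhibition: endpoint recorded as highest concentration tested. GI50: concentration for 50% inhibition of growth. Definition used: TGI = concentration required for complete inhibition of growth.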

Take `CC[C@H](C)[C@H](NC(=O)[C@H]1CCCCN1C)C(=O)N(C)[C@H](CCc1nc(C(=O)N[C@@H](Cc2ccccc2)C[C@H](C)C(=O)OC)cs1)C(C)C`: the GI50 in the assay on IGROV1 ovarian is 0.316 µM; with TK-10 renal, 7.35 µM; in the assay on SK-MEL-5 melanoma it was 0.0745 µM; in the assay on MCF7 breast, 0.0648 µM; in the assay on HCT-116 colon, 0.118 µM; in the assay on NCI-H23 lung it was 0.866 µM. Also, the GI50 with ACHN renal is 1.75 µM; in the assay on MDA-MB-435, 0.0363 µM; in the assay on SK-MEL-28 melanoma, 2.06 µM; with SK-MEL-2 melanoma, 0.104 µM. Also, the TGI was over 25 µM in the assay with IGROV1 ovarian; over 25 µM with TK-10 renal; 1.02 µM with SK-MEL-5 melanoma; over 25 µM with MCF7 breast; over 5.35 µM with HCT-116 colon; over 25 µM with NCI-H23 lung. The TGI in the assay with ACHN renal is over 25 µM; in the assay with MDA-MB-435 it was 0.185 µM; with SK-MEL-28 melanoma, over 25 µM; with SK-MEL-2 melanoma, 15.9 µM.
In the case of `CC(C)CC(N)C(=O)O` (stereo not given), the TGI in the assay on IGROV1 ovarian, in the assay on TK-10 renal, with SK-MEL-5 melanoma, in the assay with MCF7 breast, with HCT-116 colon and with NCI-H23 lung was over 100 µM each time. Besides, the TGI with ACHN renal, in the assay on MDA-MB-435, in the assay with SK-MEL-28 melanoma and in the assay with SK-MEL-2 melanoma was over 100 µM throughout.
